Data: patent publication US6358885B1, “Substituted phenylheterocyclic herbicides” (Mississippi State University, priority 1992, dated 2002)

Legend:
[1] = system: blackgrass; assay: Test B preemergence/postemergence greenhouse plant response rating 0 to 10; type: in vivo, Alopecurus myosuroides; conditions: 0 to 10 scale
In short: (§1)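 Test chemicals were sprayed onto freshly planted seed and, concurrently, onto young plants between the one and four leaf stage. After a twelve- to sixteen-day greenhouse period, each species was visually compared with untreated controls.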

[2] = system: wheat; assay: Test C preemergence/postemergence greenhouse plant response rating 0 to 100; type: in vivo, Triticum aestivum; conditions: POSTEMERGENCE
In short: (§2)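 Compounds in non-phytotoxic solvent applied preemergence to sandy loam one day after planting, postemergence at the 1–4 leaf stage, or to ~2.5 cm floodwater over silt loam.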

[3] = system: ryegrass; assay: as above; type: in vivo, Lolium multiflorum; conditions: POSTEMERGENCE
In short: as §2

[4] = system: rape; assay: as above; type: in vivo, Brassica napus; conditions: POSTEMERGENCE
In short: as §2

[5] = system: barley; assay: Test B preemergence/postemergence greenhouse plant response rating 0 to 10; type: in vivo, Hordeum vulgare; conditions: 0 to 10 scale
In short: as §1

[6] = system: wild oat; assay: as above; type: in vivo, Avena fatua; conditions: 0 to 10 scale
In short: as §1

[7] = system: sorghum; assay: Test C preemergence/postemergence greenhouse plant response rating 0 to 100; type: in vivo, Sorghum bicolor; conditions: POSTEMERGENCE
In short: as §2

[8] = system: cotton; assay: Test B preemergence/postemergence greenhouse plant response rating 0 to 10; type: in vivo, Gossypium hirsutum; conditions: 0 to 10 scale
In short: as §1

[9] = system: wild buckwheat; assay: Test C preemergence/postemergence greenhouse plant response rating 0 to 100; type: in vivo, Polygonum convolvulus; conditions: POSTEMERGENCE
In short: as §2

[10] = system: bedstraw; assay: Test B preemergence/postemergence greenhouse plant response rating 0 to 10; type: in vivo, Galium aparine; conditions: POSTEMERGENCE, 0 to 10 scale
In short: as §1

[11] = system: sugar beet; assay: as above; type: in vivo, Beta vulgaris; conditions: 0 to 10 scale
In short: as §1

[12] = system: wheat; assay: as above; type: in vivo, Triticum aestivum; conditions: 0 to 10 scale
In short: as §1

[13] = system: crabgrass; assay: Test C preemergence/postemergence greenhouse plant response rating 0 to 100; type: in vivo, Digitaria sanguinalis; conditions: POSTEMERGENCE
In short: as §2

[14] = system: sorghum; assay: Test B preemergence/postemergence greenhouse plant response rating 0 to 10; type: in vivo, Sorghum bicolor; conditions: 0 to 10 scale
In short: as §1

[15] = system: downy brome; assay: Test C preemergence/postemergence greenhouse plant response rating 0 to 100; type: in vivo, Bromus tectorum; conditions: POSTEMERGENCE
In short: as §2

[16] = system: barnyardgrass; assay: Test C flood test plant response rating 0 to 100; type: in vivo, Echinochloa crus-galli
In short: as §2

[17] = system: wild oat; assay: Test C preemergence/postemergence greenhouse plant response rating 0 to 100; type: in vivo, Avena fatua; conditions: POSTEMERGENCE
In short: as §2

[18] = system: lambsquarters; assay: Test B preemergence/postemergence greenhouse plant response rating 0 to 10; type: in vivo, Chenopodium album; conditions: 0 to 10 scale
In short: as §1

`C=CCN1C(=O)COc2cc(F)c(-c3nn4c(c3Cl)CCCC4)cc21` [Compound 33] was tested, and the “Plant response rating, Blackgrass” value ([1]; POSTEMERGENCE, Rate 10 g/ha) was 4, the “Plant response rating, Blackgrass” value ([1]; POSTEMERGENCE, Rate 50 g/ha) was 5 and the “Plant response rating, Blackgrass” value ([1]; PREEMERGENCE, Rate 10 g/ha) was 3. For the same compound, the “Plant response rating, Blackgrass” value ([1]; PREEMERGENCE, Rate 50 g/ha) was 5, the “Plant response rating, Wheat” value ([2]; 62 g/ha, 0 to 100 scale) was 60 and the “Plant response rating (0 to 100), Wheat” value ([2]; Rate 1 g/ha) was 30. For the same compound, the “Plant response rating (0 to 100), Wheat” value ([2]; Rate 4 g/ha) was 40, the “Plant response rating (0 to 100), Wheat” value ([2]; Rate 16 g/ha) was 50 and the “Plant response rating Ryegrass” value ([3]; 62 g/ha, 0 to 100 scale) was 60. The “Plant response rating (0 to 100), Ryegrass” value ([3]; Rate 1 g/ha) was 30, the “Plant response rating (0 to 100), Ryegrass” value ([3]; Rate 4 g/ha) was 40 and the “Plant response rating (0 to 100), Ryegrass” value ([3]; Rate 16 g/ha) was 50. The “Plant response rating, Rape” value ([4]; 62 g/ha, 0 to 100 scale) was 100, the “Plant response rating (0 to 100), Rape” value ([4]; Rate 1 g/ha) was 100 and the “Plant response rating (0 to 100), Rape” value ([4]; Rate 4 g/ha) was 100. The “Plant response rating (0 to 100), Rape” value ([4]; Rate 16 g/ha) was 100, the “Plant response rating, Barley” value ([5]; POSTEMERGENCE, Rate 10 g/ha) was 4 and the “Plant response rating, Barley” value ([5]; POSTEMERGENCE, Rate 50 g/ha) was 4. For the same compound, the “Plant response rating, Barley” value ([5]; PREEMERGENCE, Rate 10 g/ha) was 0, the “Plant response rating, Barley” value ([5]; PREEMERGENCE, Rate 50 g/ha) was 1 and the “Plant response rating, Wild oat” value ([6]; POSTEMERGENCE, Rate 10 g/ha) was 4. For the same compound, the “Plant response rating, Wild oat” value ([6]; POSTEMERGENCE, Rate 50 g/ha) was 5, the “Plant response rating, Wild oat” value ([6]; PREEMERGENCE, Rate 50 g/ha) was 7 and the “Plant response rating, Sorghum” value ([7]; 62 g/ha, 0 to 100 scale) was 40. The “Plant response rating (0 to 100), Sorghum” value ([7]; Rate 1 g/ha) was 0, the “Plant response rating (0 to 100), Sorghum” value ([7]; Rate 4 g/ha) was 20 and the “Plant response rating (0 to 100), Sorghum” value ([7]; Rate 16 g/ha) was 20. For the same compound, the “Plant response rating, Cotton” value ([8]; POSTEMERGENCE, Rate 10 g/ha) was 10, the “Plant response rating, Cotton” value ([8]; POSTEMERGENCE, Rate 50 g/ha) was 10 and the “Plant response rating, Cotton” value ([8]; PREEMERGENCE, Rate 10 g/ha) was 0. The “Plant response rating, Cotton” value ([8]; PREEMERGENCE, Rate 50 g/ha) was 0, the “Plant response rating, Wild buckwheat” value ([9]; 62 g/ha, 0 to 100 scale) was 100 and the “Plant response rating (0 to 100), Wild buckwheat” value ([9]; Rate 1 g/ha) was 80. The “Plant response rating (0 to 100), Wild buckwheat” value ([9]; Rate 4 g/ha) was 90, the “Plant response rating, Bedstraw” value ([10]; Rate 10 g/ha) was 8 and the “Plant response rating, Bedstraw” value ([10]; Rate 50 g/ha) was 9. For the same compound, the “Plant response rating, Sugar beet” value ([11]; POSTEMERGENCE, Rate 10 g/ha) was 10, the “Plant response rating, Sugar beet” value ([11]; POSTEMERGENCE, Rate 50 g/ha) was 10 and the “Plant response rating, Sugar beet” value ([11]; PREEMERGENCE, Rate 50 g/ha) was 10. The “Plant response rating, Wheat” value ([12]; POSTEMERGENCE, Rate 10 g/ha) was 3, the “Plant response rating, Wheat” value ([12]; POSTEMERGENCE, Rate 50 g/ha) was 5 and the “Plant response rating, Wheat” value ([12]; PREEMERGENCE, Rate 50 g/ha) was 2. The “Plant response rating, Crabgrass” value ([13]; 62 g/ha, 0 to 100 scale) was 20, the “Plant response rating (0 to 100), Crabgrass” value ([13]; Rate 1 g/ha) was 0 and the “Plant response rating (0 to 100), Crabgrass” value ([13]; Rate 4 g/ha) was 0. The “Plant response rating (0 to 100), Crabgrass” value ([13]; Rate 16 g/ha) was 0, the “Plant response rating, Sorghum” value ([14]; POSTEMERGENCE, Rate 10 g/ha) was 6 and the “Plant response rating, Sorghum” value ([14]; POSTEMERGENCE, Rate 50 g/ha) was 6. For the same compound, the “Plant response rating, Sorghum” value ([14]; PREEMERGENCE, Rate 50 g/ha) was 0, the “Plant response rating Downy Brome” value ([15]; 62 g/ha, 0 to 100 scale) was 60 and the “Plant response rating (0 to 100), Downy Brome” value ([15]; Rate 1 g/ha) was 30. For the same compound, the “Plant response rating (0 to 100), Downy Brome” value ([15]; Rate 4 g/ha) was 40, the “Plant response rating (0 to 100), Downy Brome” value ([15]; Rate 16 g/ha) was 60 and the “Plant response rating (0 to 100), Barnyardgrass” value ([16]; POSTEMERGENCE section, flood test, Rate 1 g/ha) was 35. The “Plant response rating (0 to 100), Barnyardgrass” value ([16]; Rate 4 g/ha, under POSTEMERGENCE head (flood test species)) was 65, the “Plant response rating (0 to 100), Barnyardgrass” value ([16]; Rate 16 g/ha, under POSTEMERGENCE head (flood test species)) was 95 and the “Plant response rating, Barnyardgrass” value ([16]; flood test species listed under POSTEMERGENCE, 62 g/ha, 0 to 100 scale) was 100. The “Plant response rating, Wild oat” value ([17]; 62 g/ha, 0 to 100 scale) was 60, the “Plant response rating (0 to 100), Wild oat” value ([17]; Rate 1 g/ha) was 30 and the “Plant response rating (0 to 100), Wild oat” value ([17]; Rate 4 g/ha) was 40. The “Plant response rating (0 to 100), Wild oat” value ([17]; Rate 16 g/ha) was 50, the “Plant response rating, Lambsquarter” value ([18]; POSTEMERGENCE, Rate 10 g/ha) was 9 and the “Plant response rating, Lambsquarter” value ([18]; POSTEMERGENCE, Rate 50 g/ha) was 10. For the same compound, the “Plant response rating, Lambsquarter” value ([18]; PREEMERGENCE, Rate 50 g/ha) was 10.
